Reference: PubChem BioAssay (NCI)
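Method: 48-hour compound exposure of cells in 96-well plates, five concentrations, linear interpolation of endpoints. Abbreviation: GI50, concentration required for 50% inhibition of growth. TGI: concentration producing complete growth inhibition.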

Legend:
Experiment in all cases: growth of human tumour cells (NCI), 48 h
[1] = test system: NCI-H460 lung
[2] = test system: HCT-15 colon
[3] = test system: HT29 colon
[4] = test system: SN12C renal
[5] = test system: IGROV1 ovarian
[6] = test system: NCI-H522 lung
[7] = test system: HOP-92 NSCLC
[8] = test system: UACC-62 melanoma
[9] = test system: A498 renal
[10] = test system: SF-539 CNS

Compound	TGI [1]	TGI [2]	TGI [3]	TGI [4]	TGI [5]	TGI [6]	TGI [7]	TGI [8]	TGI [9]	TGI [10]	GI50 [1]	GI50 [2]	GI50 [3]	GI50 [4]	GI50 [5]	GI50 [6]	GI50 [7]	GI50 [8]	GI50 [9]	GI50 [10]
O=C(CC1C(=O)Nc2ccccc2S1(=O)=O)Nc1ccc(Cl)cc1 (stereo not drawn)	> 100 µM	> 100 µM	> 100 µM	> 100 µM	37.7 µM	36.4 µM	44.5 µM	> 100 µM	> 100 µM	29.7 µM	–	–	–	–	–	–	–	–	–	–
Cc1c2ccncc2c(C)c2c1sc1ccccc12	14.3 µM	31 µM	22.6 µM	23.8 µM	21.6 µM	23.1 µM	28.5 µM	18.6 µM	23.1 µM	21.1 µM	–	–	–	–	–	–	–	–	–	–
CNC(=O)c1c(F)cccc1Nc1nc(Nc2cc3c(cc2OC)CCN3C(=O)CN(C)C)nc2[nH]ccc12	30.1 µM	19 µM	1.66 µM	9.81 µM	43.1 µM	3.63 µM	1.6 µM	9.79 µM	> 58.7 µM	10.3 µM	6.2 µM	3.08 µM	0.0643 µM	3.88 µM	17.5 µM	1.56 µM	0.0309 µM	4.66 µM	> 39.6 µM	4.94 µM
C/C=C/C(=O)[O-].C/C=C/C(=O)[O-].N.N.N.N.[Co+3].[O-][Cl+3]([O-])([O-])[O-]	> 100 µM	> 100 µM	> 100 µM	> 100 µM	> 100 µM	> 100 µM	> 100 µM	> 100 µM	> 100 µM	> 100 µM	> 100 µM	> 100 µM	> 100 µM	> 100 µM	> 100 µM	83.9 µM	> 100 µM	> 100 µM	> 100 µM	> 100 µM
Nc1ncc(-c2ccc3ncnc(N4CCc5ccc(Cl)cc54)c3c2)cc1C(F)(F)F	13.7 µM	22.6 µM	16.2 µM	15.9 µM	0.964 µM	17.9 µM	6.41 µM	11.1 µM	2.52 µM	10.4 µM	1.02 µM	1.3 µM	1.83 µM	0.465 µM	0.188 µM	1.76 µM	0.137 µM	0.965 µM	0.301 µM	1.61 µM
Cc1ccc(-c2nc(-c3nccc4ccccc34)oc2-c2ccccc2)cc1	> 100 µM	> 100 µM	> 100 µM	62.7 µM	> 100 µM	> 100 µM	> 100 µM	> 100 µM	> 100 µM	> 100 µM	–	–	–	–	–	–	–	–	–	–
C[N+](C)(C)c1cc[c]([Sn]([c]2ccc([N+](C)(C)C)cc2)([c]2ccc([N+](C)(C)C)cc2)[c]2ccc([N+](C)(C)C)cc2)cc1	> 100 µM	> 100 µM	> 100 µM	> 100 µM	> 100 µM	> 100 µM	> 100 µM	> 100 µM	> 100 µM	> 100 µM	> 100 µM	> 100 µM	> 100 µM	> 100 µM	> 100 µM	> 100 µM	> 100 µM	> 100 µM	> 100 µM	> 100 µM
C#C[C@@]1(O)[C@@H](CO)O[C@@H](n2cc(C(F)(F)F)c3c(N)ncnc32)[C@@H]1O	10.6 µM	> 25.5 µM	8.3 µM	> 100 µM	> 100 µM	1.98 µM	7.46 µM	2.63 µM	0.533 µM	2.71 µM	0.536 µM	0.679 µM	0.207 µM	0.658 µM	0.103 µM	0.345 µM	1.24 µM	0.707 µM	0.168 µM	0.86 µM
CCCc1nc(Cl)c(Cl)c(Cl)n1	> 100 µM	> 63.7 µM	> 100 µM	> 31.6 µM	50.4 µM	30.5 µM	> 61.7 µM	> 100 µM	> 100 µM	68.6 µM	–	–	–	–	–	–	–	–	–	–
O=C(Nc1ccccc1)OC1OC(COC(=O)c2ccccc2)C(OC(=O)c2ccccc2)C1OS(=O)(=O)c1ccc([N+](=O)[O-])cc1 (stereo not drawn)	> 100 µM	> 100 µM	> 100 µM	> 100 µM	> 100 µM	> 100 µM	> 100 µM	> 100 µM	> 100 µM	> 100 µM	–	–	–	–	–	–	–	–	–	–
Fc1ccc(-c2nn3ccccc3c2-c2ccncc2)cc1	> 25 µM	> 25 µM	> 25 µM	> 25 µM	> 25 µM	> 25 µM	> 25 µM	> 25 µM	> 25 µM	> 25 µM	> 25 µM	> 25 µM	14 µM	> 25 µM	12.9 µM	> 19.8 µM	4.53 µM	> 18.9 µM	> 18.3 µM	> 25 µM
COc1ccc(/C=C/C(=O)c2c(-c3ccccc3)nn(C)c(=O)c2N2CCOCC2)cc1	> 100 µM	> 100 µM	> 100 µM	> 100 µM	> 100 µM	> 100 µM	> 100 µM	> 100 µM	> 100 µM	> 100 µM	–	–	–	–	–	–	–	–	–	–
CCOc1ccc(C(C[N+](=O)[O-])Sc2ccccc2N)cc1 (stereo not drawn)	27 µM	4.75 µM	4.19 µM	13.4 µM	13.2 µM	24.9 µM	30.9 µM	21.6 µM	25 µM	3.94 µM	10.2 µM	2.01 µM	2.07 µM	3.23 µM	3.33 µM	11.8 µM	16.5 µM	10 µM	12.5 µM	1.89 µM
C#CC1(O)C(COP(=O)(O)OCC2OC(n3cc(F)c(=O)[nH]c3=O)CC2O)OC(n2ccc(N)nc2=O)C1O (stereo not drawn)	> 21.5 µM	> 100 µM	> 100 µM	–	> 100 µM	> 100 µM	> 46.4 µM	0.372 µM	0.199 µM	0.527 µM	< 0.01 µM	< 0.0166 µM	< 0.01 µM	< 0.01 µM	0.0398 µM	< 0.01 µM	0.196 µM	< 0.0141 µM	< 0.0134 µM	< 0.01 µM
COc1ccc(O)cc1C(O)c1ccccc1 (stereo not drawn)	> 100 µM	> 100 µM	> 100 µM	> 100 µM	> 100 µM	> 100 µM	> 100 µM	> 100 µM	> 100 µM	> 100 µM	–	–	–	–	–	–	–	–	–	–
COc1ccc2c(c1)CCc1cc(OC)ccc1/[N+]([O-])=[N+]\2[O-]	39.9 µM	42.9 µM	45.2 µM	31.6 µM	35 µM	13.7 µM	27.2 µM	30.6 µM	34.2 µM	44 µM	–	–	–	–	–	–	–	–	–	–
Cc1ccc(/C=C/C(=O)c2sc(-n3nc(-c4ccccc4)cc3-c3ccccc3)nc2C)cc1	> 100 µM	> 100 µM	> 100 µM	> 100 µM	> 100 µM	> 100 µM	> 100 µM	> 100 µM	> 100 µM	> 100 µM	–	–	–	–	–	–	–	–	–	–
COc1ccc(C(=O)c2cc3c(N)c(C(=O)Nc4cccc(Br)c4C)sc3nc2C)cc1	–	> 100 µM	> 100 µM	> 100 µM	> 100 µM	> 100 µM	1.67 µM	> 100 µM	0.26 µM	0.0809 µM	0.0962 µM	0.0489 µM	0.0509 µM	0.0844 µM	0.0869 µM	0.0418 µM	< 0.0445 µM	0.0456 µM	0.0238 µM	0.0256 µM
